According to ChEMBL document CHEMBL5260859, “Discovery and structure-activity relationship study of 2-piperazinyl-benzothiazole derivatives as potent and selective PPARδ agonists” (Bioorg Med Chem, 2023):

How the values were obtained:
[1] = target: T1, Peroxisome proliferator-activated receptor alpha (Homo sapiens, UniProt Q07869); assay: Agonist activity at Gal4-fused human PPAR-alpha ligand binding domain expressed in CHO-K1 cells assessed as receptor transactivation incubated for 24 to 48 hrs by luciferase reporter gene assay; assay type: cell-based
T1 sequence (Q07869 whole entry): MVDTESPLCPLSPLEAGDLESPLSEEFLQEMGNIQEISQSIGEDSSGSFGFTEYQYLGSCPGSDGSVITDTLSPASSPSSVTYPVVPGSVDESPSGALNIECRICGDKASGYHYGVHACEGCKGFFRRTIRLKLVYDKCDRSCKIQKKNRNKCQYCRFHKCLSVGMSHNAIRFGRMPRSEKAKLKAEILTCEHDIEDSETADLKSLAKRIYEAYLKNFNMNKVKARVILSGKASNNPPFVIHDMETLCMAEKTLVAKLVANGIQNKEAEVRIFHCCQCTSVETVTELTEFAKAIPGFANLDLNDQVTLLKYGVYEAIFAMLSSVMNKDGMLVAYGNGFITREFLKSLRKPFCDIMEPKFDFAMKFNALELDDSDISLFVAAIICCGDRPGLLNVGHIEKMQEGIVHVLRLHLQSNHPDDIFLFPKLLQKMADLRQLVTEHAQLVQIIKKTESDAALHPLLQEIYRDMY

[2] = target: T2, Peroxisome proliferator-activated receptor gamma (Mus musculus, UniProt P37238); assay: Agonist activity at Gal4-fused mouse PPAR-gamma ligand binding domain expressed in CHO-K1 cells assessed as receptor transactivation incubated for 24 to 48 hrs by luciferase reporter gene assay; assay type: cell-based
T2 sequence (P37238 whole entry): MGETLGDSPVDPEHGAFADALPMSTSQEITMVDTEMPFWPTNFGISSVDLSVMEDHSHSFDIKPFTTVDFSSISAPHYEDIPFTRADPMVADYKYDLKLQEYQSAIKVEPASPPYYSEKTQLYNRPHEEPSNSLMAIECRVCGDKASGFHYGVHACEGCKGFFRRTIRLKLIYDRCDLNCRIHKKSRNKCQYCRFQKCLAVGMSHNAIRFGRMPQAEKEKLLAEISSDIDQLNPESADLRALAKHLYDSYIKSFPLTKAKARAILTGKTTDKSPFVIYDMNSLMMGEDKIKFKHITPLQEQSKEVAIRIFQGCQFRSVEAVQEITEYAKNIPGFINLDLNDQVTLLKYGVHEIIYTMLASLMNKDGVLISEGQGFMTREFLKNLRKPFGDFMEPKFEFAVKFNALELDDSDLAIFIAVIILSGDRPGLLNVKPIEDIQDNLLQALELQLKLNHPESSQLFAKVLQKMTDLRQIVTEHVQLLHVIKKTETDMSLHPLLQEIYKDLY

[3] = target: T3, Peroxisome proliferator-activated receptor delta (Homo sapiens, UniProt Q03181); assay: Agonist activity at Gal4-fused human PPAR-delta ligand binding domain expressed in CHO-K1 cells assessed as receptor transactivation incubated for 24 to 48 hrs by luciferase reporter gene assay; assay type: cell-based
T3 sequence (Q03181 whole entry): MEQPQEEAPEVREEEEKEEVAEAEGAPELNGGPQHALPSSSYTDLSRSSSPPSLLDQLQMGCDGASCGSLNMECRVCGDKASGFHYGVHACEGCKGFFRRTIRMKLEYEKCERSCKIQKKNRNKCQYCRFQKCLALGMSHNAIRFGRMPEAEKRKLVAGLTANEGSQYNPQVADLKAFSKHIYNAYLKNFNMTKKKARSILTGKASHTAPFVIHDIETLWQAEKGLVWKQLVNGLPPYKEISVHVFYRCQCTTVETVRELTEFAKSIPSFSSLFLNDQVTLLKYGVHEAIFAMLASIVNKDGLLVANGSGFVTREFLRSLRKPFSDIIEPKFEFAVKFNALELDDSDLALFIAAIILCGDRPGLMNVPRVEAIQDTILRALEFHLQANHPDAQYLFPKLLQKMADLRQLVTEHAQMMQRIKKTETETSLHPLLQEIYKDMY

[4] = target: T4, Peroxisome proliferator-activated receptor delta (Homo sapiens) (UniProt Q03181); assay: Agonist activity at Gal4-fused human PPAR-delta ligand binding domain expressed in CHO-K1 cells assessed as receptor transactivation incubated for 24 to 48 hrs by luciferase reporter gene assay relative to control; assay type: cell-based; details: time lower 24.0 hrs, time upper […]
T4 sequence (whole entry): T3 sequence (Q03181 whole entry)

[5] = target: T5, Peroxisome proliferator-activated receptor delta (Mus musculus, UniProt P35396); assay: Agonist activity at Gal4-fused mouse PPAR-delta ligand binding domain expressed in CHO-K1 cells assessed as receptor transactivation incubated for 24 to 48 hrs by luciferase reporter gene assay; assay type: cell-based
T5 sequence (P35396 whole entry): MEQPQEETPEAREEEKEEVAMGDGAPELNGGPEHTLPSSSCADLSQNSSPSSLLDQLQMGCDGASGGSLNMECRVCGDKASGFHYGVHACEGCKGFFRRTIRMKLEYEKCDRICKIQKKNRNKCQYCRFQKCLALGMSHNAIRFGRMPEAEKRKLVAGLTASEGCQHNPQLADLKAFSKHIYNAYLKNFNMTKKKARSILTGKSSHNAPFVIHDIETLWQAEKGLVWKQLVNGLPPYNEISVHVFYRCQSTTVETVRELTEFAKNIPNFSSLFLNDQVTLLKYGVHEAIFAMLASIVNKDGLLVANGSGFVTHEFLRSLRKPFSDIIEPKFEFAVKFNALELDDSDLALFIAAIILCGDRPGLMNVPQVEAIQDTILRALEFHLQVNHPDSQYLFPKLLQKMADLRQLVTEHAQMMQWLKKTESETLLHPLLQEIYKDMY

[6] = target: T6, Peroxisome proliferator-activated receptor delta (Mus musculus) (UniProt P35396); assay: Agonist activity at Gal4-fused mouse PPAR-delta ligand binding domain expressed in CHO-K1 cells assessed as receptor transactivation incubated for 24 to 48 hrs by luciferase reporter gene assay relative to control; assay type: cell-based; details: time lower 24.0 hrs, time upper […]
T6 sequence (whole entry): T5 sequence (P35396 whole entry)

[7] = species: Homo sapiens; assay: Selectivity ratio of EC50 for agonist activity at Gal4-fused human PPAR-alpha ligand binding domain expressed in CHO-K1 cells to EC50 for agonist activity at Gal4-fused human PPAR-delta ligand binding domain expressed in CHO-K1 cells; assay type: cell-based
[8] = target: T7, Peroxisome proliferator-activated receptor gamma (Homo sapiens, UniProt P37231); assay type: cell-based, CHO-K1
T7 sequence (P37231 whole entry): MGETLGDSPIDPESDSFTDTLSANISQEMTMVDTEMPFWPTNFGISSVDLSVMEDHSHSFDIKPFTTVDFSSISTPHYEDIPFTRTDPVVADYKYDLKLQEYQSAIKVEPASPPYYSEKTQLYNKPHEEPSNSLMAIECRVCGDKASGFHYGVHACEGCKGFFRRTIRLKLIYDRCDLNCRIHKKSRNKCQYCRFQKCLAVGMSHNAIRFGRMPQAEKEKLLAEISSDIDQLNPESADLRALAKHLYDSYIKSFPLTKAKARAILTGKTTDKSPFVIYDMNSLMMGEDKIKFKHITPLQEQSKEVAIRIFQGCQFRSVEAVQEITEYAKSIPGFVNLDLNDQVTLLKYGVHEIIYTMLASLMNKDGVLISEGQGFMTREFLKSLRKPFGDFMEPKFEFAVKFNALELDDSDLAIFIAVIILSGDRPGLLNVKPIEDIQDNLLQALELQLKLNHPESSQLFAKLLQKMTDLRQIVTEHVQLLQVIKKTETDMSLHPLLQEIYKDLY

Row | EC50 [1] | EC50 [2] | EC50 [3] | Emax [4] | EC50 [5] | Emax [6] | EC50 [8] | SMILES | Ratio EC50 [7]
1 | 1600 nM | 1800 nM | 6.2 nM | 13.5% | 24 nM | 20.8% | 1200 nM | Cc1cc(CC(=O)O)cc(CN2CCN(c3nc4ccc(C(F)(F)F)cc4s3)[C@H](C)C2)c1 | 258
2 | 1800 nM | 2700 nM | 10 nM | 14% | 39 nM | 20.4% | 3100 nM | Cc1cc(CC(=O)O)cc(CN2CCN(c3nc4ccc(C(F)(F)F)cc4s3)[C@@H](C)C2)c1 | 175
